Source: US20020168327A1, “Treatment of dandruff” (Unilever Home & Personal Care USA, Division of Conopco, Inc., priority 2001, published 2002)
“And” between values parts separate entries of the source, which are not always exact repeats. Equal values may be shown once.

Key:
[1] = test system: ceramide levels in stratum corneum; assay: Ceramide production in skin: test products applied to the volar forearm for four weeks, stratum corneum tape stripping; format: in vivo, human; settings: responder subset of subjects; 1.0% of each active in ethanol/propylene glycol; twice daily for four weeks on volar forearm
Method: Tests on the ability of compositions to increase ceramide production in skin were carried out. The formulation pairs tested were: 1.0% tetraacetyl phytosphingosine (TAPS) vs Vehicle 1.0% TAPS+1.0% juniperic acid+1.0% linoleic acid vs Vehicle. Vehicle=ethanol/propylene glycol (1:1) plus 0.2% by weight Glydant Plus™. […] The studies were conducted as double-blind paired comparisons, with treatment assignments randomized. Subjects first completed a four-day washout phase. During the four-week application phase, test products were applied twice daily to the volar surface of the forearms, using dropper bottles to deliver 0.1 ml of test product to each site; each subject applied a test formulation to one site and the vehicle formulation to the adjacent site. After four weeks of application, samples of stratum corneum were obtained by tape stripping. A subset of subjects who responded to the treatments as expected, with a significant increase in ceramide levels, data from subjects showing increased ceramides was broken out. In each case, responder subjects represented a cross-section of the whole panel; they were not predominantly of one sex or age group. […] Increases were seen across all ceramide types. The increases for ceramides 1 and 2 were dramatically higher than for the other ceramide types.

[2] = In vitro skin penetration study, Franz diffusion cells, radiolabelled shampoo; format: in vitro ADME, human; settings: 6-fold diluted shampoo, one minute contact then washed off; 3H label; p<0.05
Method: Radiolabelled formulations were prepared using formulations spiked with either ^3H Lysine or ^3H glyceryl trioleate in sunflower seed oil. The total balance of each nutrient was brought up to 0.01% by weight using non-labelled cold material. Excised human full thickness skin was obtained and placed in between the two compartments of Franz diffusion cells. The skin is maintained by filling the receptor chamber of the cell with phosphate buffered saline with the cells placed in a water bath at 37° C. to maintain a surface skin tissue of about 32° C. […] The experimental procedure was as follows:
6-fold diluted shampoo was applied to the skin, left for one minute and washed off. The skin was then separated into 3:
remainder of the epidermis (viable) is then removed using heat separation (identified as the epidermal section)
Each of these layers was analysed for radioactivity and the amount of material penetrated calculated.
Using the in-vitro skin penetration studies, the amount of penetrated material can be quantified as a snap shot in time. From the skin sectioning process, the location of the penetrant at the particular point in time can be measured.

tetraacetyl phytosphingosine [TAPS]
mean increase in ceramide levels compared with vehicle [1]: 30% and 25%

NCCCC[C@H](N)C(=O)O [lysine]
skin penetration (skin layers reached) [2]: penetrate not only into the stratum corneum but also deeper into the epidermis and dermis
